Assay results: paper PMC7016291 (Acta Pharmaceutica Sinica. B, 2019)

Columns and labels:
HIV-2 (ROD) = assay: Anti-HIV activity in MT-4 cells; format: cell-based; details: Human immunodeficiency virus 2, MT4, read-out: EC50 ROD
[1] = Cytotoxicity in uninfected MT-4 cells; format: cell-based; details: human, uninfected MT-4 cells
HIV-1 RT RNase H = HIV-1 RT RNase H (Human immunodeficiency virus type 1 group M subtype B, UniProt P03366); assay: HIV-1 RT RNase H inhibition; format: biochemical
WT HIV-1 RT = WT HIV-1 RT (Human immunodeficiency virus type 1 group M subtype B, UniProt P03366); assay: HIV-1 RT inhibition assay; format: biochemical

Compound	EC50 (HIV-2 (ROD))	CC50 at 4 days [1]	IC50 (HIV-1 RT RNase H)	IC50 (WT HIV-1 RT)	activity against RNase H (HIV-1 RT RNase H)
Cc1cc(-c2ccc(C#N)cc2)cc(C)c1Oc1nc(Nc2ccc(C#N)cc2)nc(NC2CCOCC2)n1 [Compound 5b, 4ʹ-((4-((4-Cyanophenyl)amino)-6-((tetrahydro-2H-pyran-4-yl)amino)-1,3,5-triazin-2-yl)oxy)-3ʹ,5ʹ-dimethyl-[1,1ʹ-biphenyl]-4-carbonitrile]	2.03 ± 0.94 µM	> 125 µM	> 1160 µM	0.263 µM	
Cc1cc(-c2ccc(C#N)cc2)cc(C)c1Oc1nc(NCC2CCOC2)nc(Nc2ccc(C#N)cc2)n1 (stereo not shown) [Compound 5c, 4ʹ-((4-((4-Cyanophenyl)amino)-6-(((tetrahydrofuran-3-yl)methyl)amino)-1,3,5-triazin-2-yl)oxy)-3ʹ,5ʹ-dimethyl-[1,1ʹ-biphenyl]-4-carbonitrile]	1.01 ± 0.21 µM	> 125 µM	> 1160 µM	0.216 µM	
COC(=O)[C@@H]1CCCN1c1nc(Nc2ccc(C#N)cc2)nc(Oc2c(C)cc(-c3ccc(C#N)cc3)cc2C)n1 [Compound 5d, Methyl (4-((4ʹ-cyano-3,5-dimethyl-[1,1ʹ-biphenyl]-4-yl)oxy)-6-((4-cyanophenyl)-amino)-1,3,5-triazin-2-yl)-L-prolinate]	> 2.23 µM	2.23 ± 1.09 µM	> 1100 µM	0.273 µM	
Cc1cc(-c2ccc(C#N)cc2)cc(C)c1Oc1nc(Nc2ccc(C#N)cc2)nc(N2CCOCC2)n1 [Compound 5e, 4ʹ-((4-((4-Cyanophenyl)amino)-6-morpholino-1,3,5-triazin-2-yl)oxy)-3ʹ,5ʹ-dimeth-yl-[1,1ʹ-biphenyl]-4-carbonitrile]	3.61 ± 0.55 µM	> 125 µM	659 µM	0.195 µM	slight activity
Cc1cc(-c2ccc(C#N)cc2)cc(C)c1Oc1nc(Nc2ccc(C#N)cc2)nc(N2CCNCC2)n1 [Compound 5f, 4ʹ-((4-((4-Cyanophenyl)amino)-6-(piperazin-1-yl)-1,3,5-triazin-2-yl)oxy)-3ʹ,5ʹ-dimethyl-[1,1ʹ-biphenyl]-4-carbonitrile]	> 9.8 µM	9.8 ± 7.31 µM	> 1190 µM	0.482 µM	
Cc1cc(-c2ccc(C#N)cc2)cc(C)c1Oc1nc(Nc2ccc(C#N)cc2)nc(N2CCCC2CO)n1 (stereo not shown) [Compound 5g, 4ʹ-((4-((4-Cyanophenyl)amino)-6-(2-(hydroxymethyl)pyrrolidin-1-yl)-1,3,5-triazin-2-yl)oxy)-3ʹ,5ʹ-dimethyl-[1,1ʹ-biphenyl]-4-carbonitrile]	1.56 ± 0.49 µM	> 125 µM	> 1160 µM	0.28 µM	
Cc1cc(-c2ccc(C#N)cc2)cc(C)c1Oc1nc(Nc2ccc(C#N)cc2)nc(N2CCC(O)CC2)n1 [Compound 5i, 4ʹ-((4-((4-Cyanophenyl)amino)-6-(4-hydroxypiperidin-1-yl)-1,3,5-triazin-2-yl)-oxy)-3ʹ,5ʹ-dimethyl-[1,1ʹ-biphenyl]-4-carbonitrile]	1.51 ± 0.26 µM	14.9 ± 7.89 µM	500 µM	0.282 µM	slight activity
Cc1cc(-c2ccc(C#N)cc2)cc(C)c1Oc1nc(NCCN2CCN(C)CC2)nc(Nc2ccc(C#N)cc2)n1 [Compound 5k, 4ʹ-((4-((4-Cyanophenyl)amino)-6-((2-(4-methylpiperazin-1-yl)ethyl)amino)-1,3,5-triazin-2-yl)oxy)-3ʹ,5ʹ-dimethyl-[1,1ʹ-biphenyl]-4-carbonitrile]	> 14.1 µM	14.1 ± 3.47 µM	> 1070 µM	0.658 µM	
Cc1cc(-c2ccc(C#N)cc2)cc(C)c1Nc1nc(Nc2ccc(C#N)cc2)nc(NC2CC2)n1 [Compound 6a, 4ʹ-((4-((4-Cyanophenyl)amino)-6-(cyclopropylamino)-1,3,5-triazin-2-yl)amino)-3ʹ,5ʹ-dimethyl-[1,1ʹ-biphenyl]-4-carbonitrile]	26.5 µM	> 125 µM	> 1270 µM	0.0741 µM	
Cc1cc(-c2ccc(C#N)cc2)cc(C)c1Nc1nc(Nc2ccc(C#N)cc2)nc(NC2CCOCC2)n1 [Compound 6c, 4ʹ-((4-((4-Cyanophenyl)amino)-6-((tetrahydro-2H-pyran-4-yl)amino)-1,3,5-triazin-2-yl)amino)-3ʹ,5ʹ-dimethyl-[1,1ʹ-biphenyl]-4-carbonitrile]	40 µM	> 125 µM	> 1160 µM	0.246 µM	
Cc1cc(-c2ccc(C#N)cc2)cc(C)c1Nc1nc(NCC2CCOCC2)nc(Nc2ccc(C#N)cc2)n1 [Compound 6d, 4ʹ-((4-((4-Cyanophenyl)amino)-6-(((tetrahydro-2H-pyran-4-yl)methyl)amino)-1,3,5-triazin-2-yl)amino)-3ʹ,5ʹ-dimethyl-[1,1ʹ-biphenyl]-4-carbonitrile]	13.8 µM	> 125 µM	> 1130 µM	0.241 µM	
COC(=O)[C@@H]1CCCN1c1nc(Nc2ccc(C#N)cc2)nc(Nc2c(C)cc(-c3ccc(C#N)cc3)cc2C)n1 [Compound 6f, Methyl (4-((4ʹ-cyano-3,5-dimethyl-[1,1ʹ-biphenyl]-4-yl)amino)-6-((4-cyanophenyl)amino)-1,3,5-triazin-2-yl)-L-prolinate]	> 125 µM	> 125 µM	> 1100 µM	0.253 µM	
Cc1cc(-c2ccc(C#N)cc2)cc(C)c1Nc1nc(Nc2ccc(C#N)cc2)nc(N2CCOCC2)n1 [Compound 6g, 4ʹ-((4-((4-Cyanophenyl)amino)-6-morpholino-1,3,5-triazin-2-yl)amino)-3ʹ,5ʹ-dimethyl-[1,1ʹ-biphenyl]-4-carbonitrile]	39.9 µM	> 125 µM	> 1190 µM	0.137 µM	
Cc1cc(-c2ccc(C#N)cc2)cc(C)c1Nc1nc(Nc2ccc(C#N)cc2)nc(N2CCNCC2)n1 [Compound 6h, 4ʹ-((4-((4-Cyanophenyl)amino)-6-(piperazin-1-yl)-1,3,5-triazin-2-yl)amino)-3ʹ,5ʹ-dimethyl-[1,1ʹ-biphenyl]-4-carbonitrile]	> 9.24 µM	9.24 ± 5.5 µM	> 1200 µM	0.341 µM	
Cc1cc(-c2ccc(C#N)cc2)cc(C)c1Nc1nc(Nc2ccc(C#N)cc2)nc(N2CCCC2CO)n1 (stereo not shown) [Compound 6j, 4ʹ-((4-((4-Cyanophenyl)amino)-6-(2-(hydroxymethyl)pyrrolidin-1-yl)-1,3,5-triazin-2-yl)amino)-3ʹ,5ʹ-dimethyl-[1,1ʹ-biphenyl]-4-carbonitrile]	15.7 µM	62.9 ± 7.99 µM	> 1160 µM	0.157 µM	
Cc1cc(-c2ccc(C#N)cc2)cc(C)c1Nc1nc(Nc2ccc(C#N)cc2)nc(N2CCC(O)CC2)n1 [Compound 6l, 4ʹ-((4-((4-Cyanophenyl)amino)-6-(4-hydroxypiperidin-1-yl)-1,3,5-triazin-2-yl)-amino)-3ʹ,5ʹ-dimethyl-[1,1ʹ-biphenyl]-4-carbonitrile]	> 5.71 µM	5.71 ± 3.93 µM	> 1160 µM	0.223 µM	
Cc1cc(-c2ccc(C#N)cc2)cc(C)c1Nc1nc(NCCN2CCOCC2)nc(Nc2ccc(C#N)cc2)n1 [Compound 6m, 4ʹ-((4-((4-Cyanophenyl)amino)-6-((2-morpholinoethyl)amino)-1,3,5-triazin-2-yl)-amino)-3ʹ,5ʹ-dimethyl-[1,1ʹ-biphenyl]-4-carbonitrile]	> 13.9 µM	13.9 ± 10.7 µM	> 995 µM	0.176 µM	
